Experimental data from patent US20100196311A1, “METHODS AND COMPOSITIONS CONTAINING mTOR INHIBITORS FOR ENHANCING IMMUNE RESPONSES” (priority 2009, published 2010).

B1: IL-12: interleukin-12, cytokine (signal 3) (protein, UniProt P43431 23-215; P43432 23-335, looked up)
Interleukin-12 subunit alpha: RVIPVSGPARCLSQSRNLLKTTDDMVKTAREKLKHYSCTAEDIDHEDITRDQTSTLKTCLPLELHKNESCLATRETSSTTRGSCLPPQKTSLMMTLCLGSIYEDLKMYQTEFQAINAALQNHNHQQIILDKGMLVAIDELMQSLNHNGETLRQKPPVGEADPYRVKMKLCILLHAFSTRVVTINRVMGYLSSA
Interleukin-12 subunit beta: MWELEKDVYVVEVDWTPDAPGETVNLTCDTPEEDDITWTSDQRHGVIGSGKTLTITVKEFLDAGQYTCHKGGETLSHSHLLLHKKENGIWSTEILKNFKNKTFLKCEAPNYSGRFTCSWLVQRNMDLKFNIKSSSSSPDSRAVTCGMASLSAEKVTLDQRDYEKYSVSCQEDVTCPTAEETLPIELALEARQQNKYENYSTSFFIRDIIKPDPPKNLQMKPLKNSQVEVSWEYPDSWSTPHSYFSLKFFVRIQRKKEKMKETEEGCNQKGAFLVEKTSTEVQCKGGNVCVQAQDRYYNSSCSKWACVPCRVRS

Legend:
T-bet = T-bet mRNA and protein expression in OT-I cells; assay type: cell-based, mouse
Protocol: FIG. 4. IL-12-Enhanced mTOR Phosphorylation Is Essential for T-bet-Determined Type I Effector Maturation of CD8^+ T Cells. (A-C) OT-I cells stimulated with Ag+B7.1 (±) IL-12 and rapamycin were evaluated for (A) mRNA for T-bet at the indicated time points by RT-PCR, (B) T-bet protein expression at the indicated time-points by ICS, and (C) T-bet protein expression by ICS before and after antigen recall. **p<0.0035; ***p<0.0005. (D) WT and Tbx21^−1− OT-I cells were stimulated with Ag+B7.1 (±) IL-12 and evaluated for IFN-γ production at the primary and secondary phase. ***p<0.0001. (E and F) OT-I cells stimulated with Ag+B7.1 (±) IL-12 and rapamycin were transduced with T-bet-ER retroviral vector (±) 4-HT (10 nM) and evaluated by ICS for (E) T-bet protein expression by ICS and (F) IFN-γ at secondary phase (168 hr). (G and H) OT-I cells stimulated with Ag+B7.1 (±) insulin (1 U/ml) and rapamycin were evaluated by ICS for (G) S6K phosphorylation at 48 hr and (H) T-bet expression at 72 hr. Experiments shown are representative of at least three (A, B, D, E, and F) and two (C, G, and H) independent experiments with similar outcomes. (Data are presented as mean±SEM).
Retroviral Transduction and T-Bet Induction. T-bet-ER RV (Estrogen Responsive Retro Viral Vector) was cotransfected into Platinum-E cells together with the retroviral packaging vector pCL-Eco using LipoD293 DNA in vitro transfection reagent (SignaGen Laboratories) following the manufacturer's instructions. The medium was replaced the following day, and retroviral supernatant was collected 3 days after transfection. For transduction, naive OT-I cells stimulated for 24 hr, were suspended in retroviral supernatant containing polybrene (8 μg/ml; Sigma-Aldrich), and were spin-transduced at 2200 rpm for 90 min at 30° C. After spin-transduction, cells were cultured in fresh medium containing the same polarizing milieu as before, along with the addition of 4-HT (10 nM). At the end of 72 hr after initial stimulation, cells were washed thrice and maintained in the absence of any stimulation but in the presence of 4-HT and IL-7 (10 ng/ml).
Because the sustained expression of T-bet is necessary and sufficient for imprinting type I effector cell fate (Matsuda et al., 2007) and mTOR inhibition reversed IL-12 imprinted type I effector maturation in OT-I cells (FIG. 3), we next sought to determine whether rapamycin treatment affects T-bet expression in OT-I cells by performing kinetic analysis of T-bet mRNA expression (FIG. 4A). […] Moreover, inhibition of mTOR activity at 12 hr was also able to achieve loss in T-bet expression, similar to the observed loss in type I effector maturation (FIG. 3E).

OT-I cells = experiment: Type I effector functions (IFN-γ, CTL activity, Granzyme B) of OT-I cells, primary and secondary phase; assay type: cell-based, mouse
Protocol: FIG. 3. Sustained mTOR Activity Is Essential for Heritable Type I Effector Differentiation of CD8^+ T Cells. […] (D and E) OT-I cells were stimulated with Ag+B7.1 (±) IL-12 and rapamycin was added 12 hr after stimulation to evaluate cells for (D) S6K phosphorylation at 48 hr and (E) IFN-γ production at the primary and secondary phase. Experiments shown are representative of at least three (A and B) and two (C-E) independent experiments with similar outcomes. (Data are presented as mean±SEM.)
Stimulation of OT-1 Cells. Naive OT-I cells were stimulated with latex microspheres expressing H-2K^b/ovalbumin antigen and B7.1 according to known techniques. Naive OT-II cells were stimulated with anti-CD3-/anti-CD28-coated latex beads. In some experiments, the cell line derived from embryonic fibroblasts, namely, BOK (MEC.B7.SigOVA: expressing H-2K^b, OVAp and B7.1, were used as antigen-presenting cells to stimulate naive OT-I cells according to known techniques.
Evaluation of Secondary Antigen-Recall Responses In Vitro. For studying secondary antigen-recall response in vitro; OT-I cells harvested at 72 hr (primary) were washed thrice with medium and recultured (1×10^5/ml) for an additional 72 hr in a 24-well plate with IL-7 (10 ng/ml) only. At 144 hr the cells were harvested, washed thrice with medium, had numbers adjusted (5×10^5), and were restimulated with Ag/B7.1 only for an additional 24 hr (secondary stimulation). At 168 hr, the cells recovered were evaluated by flow cytometry and in vitro functional assay.
Because the presence of IL-12 during antigen stimulation augments mTOR activity and is deterministic for type I effector maturation, we analyzed whether sustained mTOR kinase activity is required for IL-12-programmed type I effector functions in OT-I cells. To do so, we stimulated naive OT-I cells with BOK±IL-12, and rapamycin and effector functions were analyzed from the primary and secondary activated OT-I pool. […] In addition, we observed a block in IL-12-induced IFN-γ production and CTL activity upon rapamycin treatment at 144 hr after primary stimulation.

[1] = IFN-α, Ag+B7.1-stimulated OT-I cells

Row | Molecule | T-bet expression (T-bet; [1]) | IFN-γ production (OT-I cells; [1]) | Ag+B7.1-induced T-bet expression (T-bet; IL-12 addition, 24-96 hr) | IFN-γ production and CTL activity (OT-I cells; IL-12 added to BOK-stimulated OT-I cells, 72 hr)
1 | IFN-α | unable to enhance | increases | – | –
2 | B1 | – | – | enhanced and sustained | robust
